Values after ≈ are worked out from the molar mass of the structure shown. “Also recorded” adds a separate entry of the source.
What was measured:
[1] = test system: Herpes simplex virus Type 2 (Curtis); experiment: Method 1: inhibition of viral induced cytopathology in primary rabbit kidney cell cultures, HSV-2; type: cell-based; settings: Human alphaherpesvirus 2; HSV-2 (Curtis), primary rabbit kidney cells; total suppression of cytopathology in 50% of cultures; read-out: Minimum Effective Concentration
Experimental: (§1) Method 1: Confluent monolayers of primary rabbit kidney cell cultures were refed with maintenance medium containing serial dilutions of the test compounds and incubated overnight at 37° C. At each dilution, four cultures were challenged with approximately 10 TCID50 HSV-1, four cultures were challenged with approximately 10 TCID50 HSV-2,and two cultures were left as toxicity controls. Cultures were reincubated at 37° C. and observed for viral induced cytopathology at days 5 and 7. Minimum Effective Concentration (μg/ml) is defined as the concentration of antiviral compound required to totally suppress the development of viral cytopathology in 50% of the infected rabbit kidney cell cultures.

[2] = test system: Herpes simplex virus type 1 (HSV-1), strain Schooler; experiment: Parenteral (subcutaneous) treatment of Herpes simplex virus type 1 infection in mice; type: in vivo, ICR/Ha mice; settings: for Avg. Survival Time / Percent Survival: s.c.
Experimental: (§2) Twenty gram ICR/Ha mice were injected intraperitoneally (ip) with 0.5 ml of a 10^-5 dilution of a stock preparation of Herpes simplex virus type 1 (HSV-1), strain Schooler. This virus challenge infected each animal with approximately 50 to 100 LD50. Starting immediately after virus infection and continuing twice daily for 4 days, each animal was injected subcutaneously in groups of 10 with: 125 μg, 31 μg, 8 μg or 2 μg of compounds A, B or C; or placebo (physiological saline, pH 11.5). All compounds were solubilized in physiological saline, pH 11.5. The mice were observed daily for 15 days at the same time each day and the day of death was recorded for each animal.
Statistical analyses [reference: Liddel, F.D.K., Evaluation of Survival in Challenge Experiments, Microbiol. Rev., 42, 237 (1978)]were performed on survival times transformed by the negative exponential transformation:
t=number of days an animal survived
T=duration of trial (15 days)
A continuity correction was used to account for daily observation:
Within each group, mice surviving through the trial period were assigned equally values of 0.9 and 1.0 to adjust for termination of the trial.
Average survival time per group was calculated from average corrected transformed survival times [fc (t)] as follows:
t avg=[T/log(0.1).[log(1-fc (t)]

[3] = test system: Herpes simplex virus Type 1 (Schooler); experiment: Method 2: virus plaque reduction in MRC-5 cells, HSV-1; type: cell-based
Experimental: Method 2: Confluent monolayers of MRC-5 cells were incubated for one hour at 37° C. with 50-100 plaque forming units of the indicated virus. Following incubation, the cell monolayers were refed with maintenance medium containing 2% methyl cellulose and the chemical agent indicated. Duplicate cultures were incubated with each concentration of the chemical agent tested. Following further incubation for 3 days at 37° C., the monolayers were stained and the developed virus plaques were counted. The concentration (μg/ml) of each chemical agent which reduced plaque development by 50% (ED50) was determined.

[4] = test system: Herpes simplex virus Type 1 (Schooler); experiment: Method 1: inhibition of viral induced cytopathology in primary rabbit kidney cell cultures, HSV-1; type: cell-based; settings: Human alphaherpesvirus 1; HSV-1 (Schooler), primary rabbit kidney cells; total suppression of cytopathology in 50% of cultures; read-out: Minimum Effective Concentration
Experimental: as §1

[5] = test system: Herpes simplex virus type 1 (HSV-1), strain Schooler; experiment: Oral treatment of intraperitoneal HSV-1 infection of mice (Example 17); type: in vivo, ICR/Ha mice; settings: for Percent Survival: at 15 days
Experimental: Twenty gram ICR/Ha mice were injected intraperitoneally (i.p.) with 0.5 ml of a 10^-5 dilution of a stock preparation of Herpes Simplex virus type 1 (HSV-1), strain Schooler. This virus challenge infected mice with approximately 50 to 100 LD50. Starting immediately after virus infection and continuing twice daily for 7 days, each animal was treated by oral gavage in groups of 10 with: 500 μg, 125 μg, 31 μg or 8 μg of (S)-9-(2,3-dihydroxy-1propoxymethyl)guanine; 500 μg, 125 μg, 31 μg or 8 μg of acyclovir or placebo (physiological saline, pH 11.5). All compounds were solubilized in physiological saline, pH 11.5.
(§3) The statistical analyses were carried out as described in Example 15.

herpes viruses = experiment: antiviral activity against herpes viruses (general statement)
[6] = test system: Herpes simplex virus type 1 (HSV-1), strain Schooler; experiment: Oral treatment of intraperitoneal HSV-1 infection of mice (Example 16); type: in vivo, ICR/Ha mice
Experimental: as §2, with “(i.p.)” for “(ip)”, “LD50 s.” for “LD50.”, “7” for “4”, “treated by oral gavage” for “injected subcutaneously”, “with: 250 μg, 125 μg, 8 μg or 2 μg of (S)-9-(2,3-dihydroxy-1-propoxymethyl)guanine; 500 μg,” for “with:”, “racemic 9-(2,3-dihydroxy-1-propoxymethyl)guanine;” for “compounds A, B or C;”
as §3

[7] = 125 μg/dose twice daily for 7 days, 12.5 mg/kg/day
[8] = 500 μg/dose twice daily for 7 days, 50 mg/kg/day

## Nc1nc2c(ncn2COC[C@@H](O)CO)c(=O)[nH]1 [A, (S)-9-(2,3-dihydroxy-1-propoxymethyl)guanine]
[1]
  minimal effective concentration: 3.1 µg/mL
[2]; parallel line analysis, not statistically significant
  relative potency of A to C: 2.3
[2]; parallel line analysis, statistically significant
  relative potency of A to B: 5.3
[2]; 2 μg/dose twice daily for 4 days, 0.2 mg/kg/day, ^3 (all): not statistically different from placebo
  Avg. Survival Time: 6.1 days
[2]; 2 μg/dose twice daily for 4 days, 0.2 mg/kg/day, at 15 days
  Percent Survival: 0%
[2]; 8 μg/dose twice daily for 4 days, 0.8 mg/kg/day, ^3 (all): not statistically different from placebo
  Avg. Survival Time: 6.7 days
[2]; 8 μg/dose twice daily for 4 days, 0.8 mg/kg/day, at 15 days
  Percent Survival: 0%
[2]; 31 μg/dose twice daily for 4 days, 3.1 mg/kg/day, ^3 (all): not statistically different from placebo
  Avg. Survival Time: 7.6 days
[2]; 31 μg/dose twice daily for 4 days, 3.1 mg/kg/day, at 15 days
  Percent Survival: 10%
[2]; 125 μg/dose twice daily for 4 days, 12.5 mg/kg/day, ^3 (B, acyclovir): not statistically different from placebo
  Avg. Survival Time: 10.7 days
[2]; 125 μg/dose twice daily for 4 days, 12.5 mg/kg/day, at 15 days (acyclovir not at the same time)
  Percent Survival: 40%
[3]; A vs B, conclusion of Example 14 (Methods 1 and 2)
  fold more effective than B in protecting cell cultures against HSV-1 infection: 10 to 25 fold
[3]; A vs C, conclusion of Example 14 (Methods 1 and 2)
  fold more active than C in protecting cell cultures against HSV-1 infection: about 2 fold
[3]; Human alphaherpesvirus 1, MRC5, 72 h, HSV-1 (Schooler), MRC-5 cells, 3 days, 50% reduction of plaque development, read-out: ED50 (the source's name)
  EC50: 0.5 µg/mL (≈ 1.96 µM)
[4]
  minimal effective concentration: 0.8 to 1.5 µg/mL
[5]; 8 μg/dose twice daily for 7 days, 0.8 mg/kg/day, ^b (all): not statistically different from placebo
  Avg. Survival Time: 6.2 days
[5]; 8 μg/dose twice daily for 7 days, 0.8 mg/kg/day
  Percent Survival: 0%
[5]; 31 μg/dose twice daily for 7 days, 3.1 mg/kg/day, ^b (all): not statistically different from placebo
  Avg. Survival Time: 6.9 days
[5]; 31 μg/dose twice daily for 7 days, 3.1 mg/kg/day
  Percent Survival: 0%
[5]; [7]
  Avg. Survival Time: 8.1 days
  Percent Survival: 0%
[5]; [8]
  Avg. Survival Time: 12.9 days
  Percent Survival: 30%
[5]; 12.5 mg/kg/day
  protection over placebo-treated animals, as measured by average survival time: conferred significant protection over placebo-treated animals
[5]; 50 mg/kg/day
  protection over placebo-treated animals, as measured by average survival time: conferred significant protection over placebo-treated animals
[5]; statistically significant
  relative potency to acyclovir: 2.8
Herpes viruses; general statement in words
  antiviral (antiherpetic) activity: substantial antiviral activity against various herpes viruses; also recorded: potent antiherpetic activity
Herpes viruses; vs 9-(2-hydroxyethoxymethyl)guanine (acyclovir)
  antiviral (antiherpetic) activity compared with acyclovir: significantly greater antiviral activity; also recorded: much more potent
Herpes viruses; vs racemic mixture or (R)-enantiomer
  antiherpetic activity compared with the racemic mixture or the (R)-enantiomer: better than the corresponding racemic mixture or the (R)-enantiomer
[6]; 2 μg/dose twice daily for 7 days, 0.2 mg/kg/day, ^3 (all): not statistically different from placebo
  Avg. Survival Time: 7.2 days
[6]; 2 μg/dose twice daily for 7 days, 0.2 mg/kg/day, at 15 days
  Percent Survival: 0%
[6]; 8 μg/dose twice daily for 7 days, 0.8 mg/kg/day, ^3 (all): not statistically different from placebo
  Avg. Survival Time: 7.2 days
[6]; 8 μg/dose twice daily for 7 days, 0.8 mg/kg/day, at 15 days
  Percent Survival: 0%
[6]; 31 μg/dose twice daily for 7 days, 3.1 mg/kg/day, ^3 (all): not statistically different from placebo
  Avg. Survival Time: 7.5 days
[6]; 31 μg/dose twice daily for 7 days, 3.1 mg/kg/day, at 15 days (acyclovir not at the same time)
  Percent Survival: 0%
[6]; 125 μg/dose twice daily for 7 days, 12.5 mg/kg/day, ^3 (racemate, acyclovir): not statistically different from placebo
  Avg. Survival Time: 10.2 days
[6]; 125 μg/dose twice daily for 7 days, 12.5 mg/kg/day, at 15 days (acyclovir not at the same time)
  Percent Survival: 20%
[6]; 250 μg/dose twice daily for 7 days, 25 mg/kg/day
  Avg. Survival Time: 9.8 days
[6]; 250 μg/dose twice daily for 7 days, 25 mg/kg/day, at 15 days
  Percent Survival: 10%
[6]; 12.5 mg/kg/day
  protection over placebo-treated animals, as measured by average survival time: conferred significant protection over placebo-treated animals
[6]; 25 mg/kg/day
  protection over placebo-treated animals, as measured by average survival time: conferred significant protection over placebo-treated animals
